Legend:
human URAT1 = target: T1, human URAT1 (Homo sapiens, UniProt Q96S37); conditions: for Fold more potent than parent lesinurad (URAT1 inhibition): ratio of IC50 vs lesinurad, in vitro URAT1 inhibitory assay
T1 sequence (Q96S37 1-553): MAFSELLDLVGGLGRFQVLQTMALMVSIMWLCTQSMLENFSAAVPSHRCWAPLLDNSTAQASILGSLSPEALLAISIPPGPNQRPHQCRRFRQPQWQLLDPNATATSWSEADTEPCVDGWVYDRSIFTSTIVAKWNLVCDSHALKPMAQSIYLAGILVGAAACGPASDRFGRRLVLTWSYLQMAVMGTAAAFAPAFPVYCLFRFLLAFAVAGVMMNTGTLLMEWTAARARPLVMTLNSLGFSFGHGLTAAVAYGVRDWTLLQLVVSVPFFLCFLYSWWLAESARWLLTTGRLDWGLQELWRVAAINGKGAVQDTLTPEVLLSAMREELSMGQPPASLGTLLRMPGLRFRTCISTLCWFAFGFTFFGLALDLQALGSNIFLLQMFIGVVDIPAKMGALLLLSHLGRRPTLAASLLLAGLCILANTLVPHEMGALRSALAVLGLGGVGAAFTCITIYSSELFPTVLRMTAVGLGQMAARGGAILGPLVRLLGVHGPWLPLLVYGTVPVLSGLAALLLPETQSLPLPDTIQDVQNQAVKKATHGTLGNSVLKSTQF
Procedure: After 48 h, when the HEK293-URAT1 cells were grown to confluence, the cells were treated by 0.25% trypsin for 1–2 min. Thereafter, the digested cells were diluted to a density of 1.5 × 10^5/mL and inoculated into the 24-well cell culture plates for about 48 h. The HEK293-URAT1 cells were pre-incubated for 10 min in HBSS (Cl^− free) and then incubated in the uptake solution (PBS) containing 5 μM [8-^14C]uric acid (2 μCi/mL) with or without the tested compounds (at a series of concentrations). […] After that, 500 μL of cell lysis was transferred to scintillation vials and solubilized with scintillation solution. The radioactivity in the cells was measured by a liquid scintillation counter (PerkinElmer, Waltham, MA, USA).

Structure (SMILES)	melting point	IC50 (human URAT1)	Fold more potent than parent lesinurad (URAT1 inhibition) (human URAT1)
O=C([O-])CCc1nnc(I)n1-c1ccc(C2CC2)c2ccccc12.[Na+] [Compound 1d, Sodium 3-(4-(4-cyclopropylnaphth-1-yl)-5-iodo-4H-1,2,4-triazol-3-yl)propionate]	158 °C (dec.)	8.8 ± 1 µM	–
O=C([O-])CCCc1nnc(Br)n1Cc1ccc(Br)c2ccccc12.[Na+] [Compound 1q, Sodium 4-(5-bromo-4-((4-bromonaphth-1-yl)methyl)-4H-1,2,4-triazol-3-yl)butanoate]	–	0.23 ± 0.05 µM	31 fold
O=C([O-])CCc1nnc(Cl)n1-c1ccc(C2CC2)c2ccccc12.[Na+] [Compound 1b, Sodium 3-(5-chloro-4-(4-cyclopropylnaphth-1-yl)-4H-1,2,4-triazol-3-yl)propionate]	135 °C (dec.)	6.3 ± 0.74 µM	–
COc1ccc(-n2c(Br)nnc2CCC(=O)[O-])c2ccccc12.[Na+] [Compound 1l, Sodium 3-(5-bromo-4-(4-methoxynaphth-1-yl)-4H-1,2,4-triazol-3-yl)propionate]	211 °C (dec.)	36.6 ± 5.3 µM	–
O=C(O)CCc1nnc(Br)n1Cc1ccc(Br)c2ccccc12 [Compound 1o, Sodium 3-(5-bromo-4-((4-bromonaphth-1-yl)methyl)-4H-1,2,4-triazol-3-yl)propionate]	–	0.61 ± 0.07 µM	–
CCOc1ccc(-n2c(Br)nnc2CCC(=O)[O-])c2ccccc12.[Na+] [Compound 1m, Sodium 3-(5-bromo-4-(4-ethoxynaphth-1-yl)-4H-1,2,4-triazol-3-yl)propionate]	194 °C (dec.)	11.2 ± 1.3 µM	–
O=C([O-])CCc1nnc(Br)n1CCc1ccc(Br)c2ccccc12.[Na+] [Compound 1p, Sodium 3-(5-bromo-4-(2-(4-bromonaphth-1-yl)ethyl)-4H-1,2,4-triazol-3-yl)propionate]	167 °C (dec.)	34.7 ± 4.9 µM	–
CCOc1nnc(CCC(=O)[O-])n1-c1ccc(C2CC2)c2ccccc12.[Na+] [Compound 1f, Sodium 3-(4-(4-cyclopropylnaphth-1-yl)-5-ethoxy-4H-1,2,4-triazol-3-yl)propionate]	101.5 °C (dec.)	9.1 ± 1.2 µM	–
O=C([O-])CCc1nnc(Br)n1-c1ccc(Br)c2ccccc12.[Na+] [Compound 1n, Sodium 3-(5-bromo-4-(4-bromonaphth-1-yl)-4H-1,2,4-triazol-3-yl)propionate]	204 °C (dec.)	0.85 ± 0.12 µM	–
O=C([O-])CCc1nnc(Br)n1-c1ccc(C2CC2)c2ccccc12.[Na+] [Compound 1c, Sodium 3-(5-bromo-4-(4-cyclopropylnaphth-1-yl)-4H-1,2,4-triazol-3-yl)propionate]	–	2.4 ± 0.15 µM	three
CCCc1ccc(-n2c(Br)nnc2CCC(=O)[O-])c2ccccc12.[Na+] [Compound 1j, Sodium 3-(5-bromo-4-(4-n-propylnaphth-1-yl)-4H-1,2,4-triazol-3-yl)propionate]	183 °C (dec.)	8.3 ± 1.1 µM	–
CCc1ccc(-n2c(Br)nnc2CCC(=O)[O-])c2ccccc12.[Na+] [Compound 1i, Sodium 3-(5-bromo-4-(4-ethylnaphth-1-yl)-4H-1,2,4-triazol-3-yl)propionate]	198 °C (dec.)	8.4 ± 0.98 µM	–
COc1nnc(CCC(=O)[O-])n1-c1ccc(C2CC2)c2ccccc12.[Na+] [Compound 1e, Sodium 3-(4-(4-cyclopropylnaphth-1-yl)-5-methoxy-4H-1,2,4-triazol-3-yl)propionate]	133 °C (dec.)	> 100 µM	–
O=C([O-])CCCCc1nnc(Br)n1Cc1ccc(Br)c2ccccc12.[Na+] [Compound 1r, Sodium 5-(5-bromo-4-((4-bromonaphth-1-yl)methyl)-4H-1,2,4-triazol-3-yl)pentanoate]	146 to 149 °C	1.24 ± 0.17 µM	–
CC(C)c1ccc(-n2c(Br)nnc2CCC(=O)[O-])c2ccccc12.[Na+] [Compound 1k, Sodium 3-(5-bromo-4-(4-isopropylnaphth-1-yl)-4H-1,2,4-triazol-3-yl)propionate]	194 °C (dec.)	1.1 ± 0.21 µM	–
Cc1ccc(-n2c(Br)nnc2CCC(=O)[O-])c2ccccc12.[Na+] [Compound 1h, Sodium 3-(5-bromo-4-(4-methylnaphth-1-yl)-4H-1,2,4-triazol-3-yl)propionate]	155 °C (dec.)	12.6 ± 1.6 µM	–
O=C([O-])CCc1nncn1-c1ccc(C2CC2)c2ccccc12.[Na+] [Compound 1a, Sodium 3-(4-(4-cyclopropylnaphth-1-yl)-4H-1,2,4-triazol-3-yl)propionate]	140 °C (dec.)	> 100 µM	–
O=C([O-])CCc1nnc(Br)n1-c1cccc2ccccc12.[Na+] [Compound 1g, Sodium 3-(5-bromo-4-(naphth-1-yl)-4H-1,2,4-triazol-3-yl)propionate]	182 to 184 °C	10.5 ± 1.4 µM	–
